Measurements reported in patent USRE47193E1, “Selectively substituted quinoline compounds” (EISAI R&D MANAGEMENT CO., LTD., priority 2013, dated 2019).
Read-outs that look alike come from different tables or passages of the source.

How the values were obtained:
human TLR8 = biological target: T1, human TLR8 (Homo sapiens, UniProt Q9NR97); experiment: HEK-293 human TLR8 NF-kappaB luciferase reporter assay (CL097); format: cell-based
T1 construct: host or cells: HEK-293, then stably transfected with pNiFty2(NF-kappaB)-luciferase reporter
T1 sequence (Q9NR97 27-1041): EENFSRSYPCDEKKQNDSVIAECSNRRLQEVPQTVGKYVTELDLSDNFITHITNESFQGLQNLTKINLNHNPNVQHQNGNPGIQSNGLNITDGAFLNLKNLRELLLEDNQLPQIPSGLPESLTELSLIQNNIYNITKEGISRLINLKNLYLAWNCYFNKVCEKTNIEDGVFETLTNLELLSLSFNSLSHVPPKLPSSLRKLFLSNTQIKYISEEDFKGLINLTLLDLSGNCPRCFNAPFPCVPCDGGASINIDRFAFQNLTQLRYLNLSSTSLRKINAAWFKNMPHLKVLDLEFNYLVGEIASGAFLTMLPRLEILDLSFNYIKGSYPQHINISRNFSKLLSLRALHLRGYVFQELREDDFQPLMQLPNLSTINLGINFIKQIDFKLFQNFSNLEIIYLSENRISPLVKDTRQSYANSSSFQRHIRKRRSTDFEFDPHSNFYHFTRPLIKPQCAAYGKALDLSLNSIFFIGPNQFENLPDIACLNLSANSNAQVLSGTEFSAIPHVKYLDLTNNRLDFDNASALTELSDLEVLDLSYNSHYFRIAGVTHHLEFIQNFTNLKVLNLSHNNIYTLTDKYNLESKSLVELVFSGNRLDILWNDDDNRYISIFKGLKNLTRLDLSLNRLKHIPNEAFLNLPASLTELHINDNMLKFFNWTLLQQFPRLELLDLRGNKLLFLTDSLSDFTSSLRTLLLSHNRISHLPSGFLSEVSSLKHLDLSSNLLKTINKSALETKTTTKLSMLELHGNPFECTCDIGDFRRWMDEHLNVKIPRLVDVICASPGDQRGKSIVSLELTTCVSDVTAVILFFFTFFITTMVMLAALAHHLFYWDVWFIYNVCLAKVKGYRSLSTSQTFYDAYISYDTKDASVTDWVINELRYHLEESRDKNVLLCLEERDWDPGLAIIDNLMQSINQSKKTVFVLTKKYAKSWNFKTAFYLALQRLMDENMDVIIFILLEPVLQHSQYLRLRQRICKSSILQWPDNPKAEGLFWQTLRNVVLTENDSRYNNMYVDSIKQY
Description: Effects on mouse TLR7 were also compared. Cells were stimulated overnight with TLR7/8 agonist CL097 at pre-determined ED70-80: 3 ug/ml for HEK-hTLR7, 1.5 ug/ml for HEK-mTLR7 and 12 ug/ml for HEK-hTLR8, before reading luminescence intensity. Three tests were performed and IC50 value was determined using Graphpad Prism 6 nonlinear regression curve fit.
HEK-293 cells (ATCC) were engineered to stably express a NF-kappaB transcription factor inducible E-selectin (ELAM-1) luciferase reporter derived from the plasmid pGL3 (Promega) containing base pairs −2241 bp to −254 bp from the promoter of the human E-selectin gene (Accession No. NM_000450). These cells were then subsequently engineered to stably and individually express human TLR4, TLR7 or TLR9 full-length ORF cDNAs. Human TLR4 cDNA (Accession No. NM_138554) was cloned into pcDNA 3.0 expression vector (Invitrogen). TLR4 transfected cells were also engineered to express human MD-2 co-receptor [MD-2 cDNA (Accession No. NM_015364) was cloned into the pEF-BOS vector] and were supplemented with 10 nM soluble CD14 (R&D Systems) in the media to optimize LPS responsiveness. Human TLR9 cDNA (Accession No. NM_017442) was cloned into the pBluescript II KS vector (Agilent). Human TLR7 cDNA (Accession No. NM_016562) was obtained from OriGene. HEK-293 cells stably expressing human TLR8 (Accession No. NM_138636) or mouse TLR7 (Accession No. NM_133211) were purchased from InvivoGen and were then stably transfected with pNiFty2(NF-kappaB)-luciferase reporter plasmid (InvivoGen). Each cell type was plated in Dulbecco's modified Eagle's medium (DMEM) containing 10% fetal bovine serum (FBS) at a density of 2.22×10^5 cells/ml into a 384-well plate and incubated for 2 days at 37° C., 5% CO2. Varying concentrations of antagonist compounds were then added. Cells were then incubated for another 30 minutes before adding the appropriate TLR agonist as follows (final concentrations indicated): lipopolysaccharide (LPS; Sigma) at 10 ng/ml for TLR4, CL097 (InvivoGen) at 3 ug/ml for human TLR7 and TLR8 and mouse TLR7, and CvG-2006-2A [sequence: […] (SEQ ID NO: 1) with phosphorothioate backbone, synthesized by Sigma-Aldrich] at 0.6 uM for TLR9.

Human TLR7/8 = experiment: Human PBMC cell-based assay, TLR7/8 stimulus (RNA-Ig), cytokine ELISA; conditions: primary human PBMC assay, TLR7/8 potency; ligand not given; read-out: Human PBMCs IC50
How it was run: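 The agonist was RNA-Ig, a U1 snRNA-derived 26-mer RNA (2.5 μM) complexed with RNA-cross-reacting anti-ssDNA mAb (1:25 or 1 ug/ml), added after 30 min compound pre-incubation (0.1% DMSO). Density-gradient PBMC from healthy donors, 2×10^5/well, were stimulated 20 h at 37 °C; cytokines quantified by ELISA.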

[1] = HEK-293 assay format, read-out: HEK/hTLR8 IC50

Compound	IC50 (human TLR8; [1]) [nM]	IC50 (Human TLR7/8) [nM]	IC50 (human TLR8; HEK/hTLR8 IC50, HEK-293 assay format) [nM]
C[C@@H]1CN(c2ccc(C#N)c3ncccc23)C[C@H](CN2CCC(c3ccccc3)C2)O1 (some centres unmarked) [ER-886854]	46	20	
C[C@@H]1CN(c2ccc(C#N)c3ncccc23)C[C@H](COCC2CCCCC2)O1 [ER-885930]	147		
CC[C@@H]1CN(c2ccc(C#N)c3ncccc23)C[C@H](COCc2ccccc2)O1 [ER-886355]	66	177	
C[C@@H]1CN(c2ccc(C#N)c3ncccc23)C[C@H](C(=O)C2CCCCC2)O1 [ER-886626]	5	80	
C[C@@H]1CN(c2ccc(C#N)c3ncccc23)C[C@H](CN2CC(NC(=O)c3ccccc3)C2)O1 [ER-894594]	116	87	
C[C@@H]1CN(c2ccc(C#N)c3ncccc23)C[C@H](CNC2CCC2)O1 [ER-887443]	138	32	
C[C@@H]1CN(c2ccc(C#N)c3ncccc23)C[C@H](CNC2CCCCCC2)O1 [ER-887444]	193		
C[C@@H]1CN(c2ccc(C#N)c3ncccc23)C[C@H](CNCc2ccccc2)O1 [ER-886509]			119
C[C@@H]1CN(c2ccc(C#N)c3ncccc23)C[C@H](CF)O1 [ER-885621]	25		
C[C@H]1CN(c2ccc(C#N)c3ncccc23)C[C@H](C)O1 [ER-880191]	10		
C[C@@H]1CN(c2ccc(C#N)c3ncccc23)C[C@H](CN2CC[C@@H](c3ccccc3)C2)O1 [ER-886818]	81		
CCCCC(O)C1CN(c2ccc(C#N)c3ncccc23)CC(C)O1 (single isomer, unassigned) [ER-886530]	5		
C[C@@H]1CN(C[C@H]2CN(c3ccc(C#N)c4ncccc34)C[C@@H](C)O2)[C@H](C)CN1 [ER-887271]	1.6	2	
C[C@@H]1CN(c2ccc(C#N)c3ncccc23)C[C@H](CN2CCC(C)(C)C2)O1 [ER-886869]	161	112	
CC1CCCCC1NC[C@H]1CN(c2ccc(C#N)c3ncccc23)C[C@@H](C)O1 (some centres unmarked) [ER-887539]	0.5		
COc1ccc(N2C[C@@H](C)O[C@@H](C)C2)c2cccnc12 [ER-885113]	11		
N#Cc1ccc(N2CCOC(CCl)C2)c2cccnc12 (centres unmarked) [ER-879484]	18		
CC1CN(c2ccc(C#N)c3ncccc23)CC(C(O)C2CCCCC2)O1 (single isomer, unassigned) [ER-886533]	14		
C[C@@H]1CN(c2ccc(C#N)c3ncccc23)C[C@H](CNc2ccc(-c3ccccc3)cn2)O1 [ER-887538]	85	48	
CC[C@@H]1CN(c2ccc(C#N)c3ncccc23)C[C@H](CO)O1 [ER-887199]	77	117	
CC1CCC(C)N1C[C@H]1CN(c2ccc(C#N)c3ncccc23)C[C@@H](C)O1 (some centres unmarked) [ER-886857]	72	98	
CCC(=O)[C@H]1CN(c2ccc(C#N)c3ncccc23)C[C@@H](C)O1 [ER-886625]	10	91	
C[C@@H]1CN(c2ccc(C#N)c3ncccc23)C[C@H](CN2CCC(c3ccccc3)CC2)O1 [ER-887143]	148	13	

Compound	IC50 (human TLR8; [1]) [nM]	IC50 (Human TLR7/8) [nM]	IC50 (human TLR8; HEK/hTLR8 IC50, HEK-293 assay format) [nM]
COC[C@H]1CN(c2ccc(C#N)c3ncccc23)C[C@@H](C)O1 [ER-885612]	55	614	
C[C@@H]1CN(c2ccc(C#N)c3ncccc23)C[C@H](CNC(=O)C(C)(C)C)O1 [ER-879713]	80		
C[C@@H]1CN(c2ccc(C#N)c3ncccc23)C[C@H](COc2ccccc2F)O1 [ER-886624]	86	23	
CC1CN(c2ccc(C#N)c3ncccc23)CC(CN2CCC(F)CC2)O1 (centres unmarked) [ER-887144]	48	63	
C[C@@H]1CN(c2ccc(C#N)c3ncccc23)C[C@H](C(=O)CCc2ccccc2)O1 [ER-886629]	5		
C[C@@H]1CN(c2ccc(C#N)c3ncccc23)C[C@H](CN2CCN(c3ccccc3)CC2)O1 [ER-887258]	175	55	
C[C@@H]1CN(c2ccc(C#N)c3ncccc23)C[C@H](CNc2ccnc(-c3ccccc3)c2)O1 [ER-887588]	0.5	1	
CC1CN(c2ccc(C#N)c3ncccc23)CC(CNC2CCCC2O)O1 (mixture of isomers) [ER-887528]	135	56	
C[C@@H]1CN(c2ccc(C#N)c3ncccc23)C[C@H](COCc2ccccc2)O1 [ER-885618, 5-((2R,6R)-2-((benzyloxy)methyl)-6-methylmorpholino)quinoline-8-carbonitrile]	5	23	
C[C@@H]1CN(c2ccc(C#N)c3ncccc23)C[C@H](COc2ccccc2)O1 [ER-886514]	5		
C[C@@H]1CN(c2ccc(C#N)c3ncccc23)C[C@H](CNC2CCC(O)CC2)O1 (some centres unmarked) [ER-887526]	122	50	
CC1CN(c2ccc(C#N)c3ncccc23)CC(C(O)CCc2ccccc2)O1 (single isomer, unassigned) [ER-886567]	5	22	
C[C@@H]1CN(c2ccc(C#N)c3ncccc23)C[C@H](CN2CCC[C@@H](N)C2)O1 [ER-887928]	11		
CC(=O)N1CCN(C[C@H]2CN(c3ccc(C#N)c4ncccc34)C[C@@H](C)O2)CC1 [ER-887261]	77	120	
CC1CN(c2ccc(C#N)c3ncccc23)CC(C(O)C2CCCCC2)O1 (single isomer, unassigned) [ER-886532]	30		
C[C@@H]1CN(c2ccc(C#N)c3ncccc23)C[C@H](CN2CCCC2)O1 [ER-886507]	182		
C[C@@H]1CN(c2ccc(C#N)c3ncccc23)C[C@H](CN2C[C@H](C)NC[C@H]2C)O1 [ER-887272]	2.9	2	
C[C@@H]1CN(c2ccc(C#N)c3ncccc23)C[C@H](CN2CCCCC2CO)O1 (some centres unmarked) [ER-886955]	83	129	
CC(C)COC[C@H]1CN(c2ccc(C#N)c3ncccc23)C[C@@H](C)O1 [ER-885892]	37		
CCN(CC)C[C@H]1CN(c2ccc(C#N)c3ncccc23)C[C@@H](C)O1 [ER-886508]	186		
C[C@@H]1CN(c2ccc(C#N)c3ncccc23)C[C@H](CNc2ncccc2-c2ccccc2)O1 [ER-887540]	3	1	
CC1CN(c2ccc(C#N)c3ncccc23)CC(CN2CCCC2C(C)C)O1 (mixture of isomers) [ER-886816]	107		
C=CC(O)[C@H]1CN(c2ccc(C#N)c3ncccc23)C[C@@H](C)O1 (single isomer, unassigned) [ER-886431]	31		
